In PubChem BioAssay (NCI):
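GI50 is the concentration that inhibits growth by half. Definition used: TGI = concentration required for complete inhibition of growth.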

What was measured:
Assay in all cases: NCI anticancer screen, dose series, 384-well format
786-0 renal = test system: 786-0 renal
A498 renal = test system: A498 renal
A549 NSCLC = test system: A549 NSCLC
ACHN renal = test system: ACHN renal
BT-549 breast = test system: BT-549 breast
CAKI-1 renal = test system: CAKI-1 renal
COLO 205 colon = test system: COLO 205 colon
DU-145 prostate = test system: DU-145 prostate
HCC-2998 colon = test system: HCC-2998 colon
HCT-116 colon = test system: HCT-116 colon
HCT-15 colon = test system: HCT-15 colon
HL-60(TB) leukemia = test system: HL-60(TB) leukemia
HOP-62 NSCLC = test system: HOP-62 NSCLC
HOP-92 NSCLC = test system: HOP-92 NSCLC
HT29 colon = test system: HT29 colon
IGROV1 ovarian = test system: IGROV1 ovarian
KM12 colon = test system: KM12 colon
LOX IMVI melanoma = test system: LOX IMVI melanoma
M14 melanoma = test system: M14 melanoma
MALME-3M melanoma = test system: MALME-3M melanoma
MCF7 breast = test system: MCF7 breast
MDA-MB-231 breast = test system: MDA-MB-231 breast
MDA-MB-435 melanoma = test system: MDA-MB-435 melanoma
MDA-MB-468 breast = test system: MDA-MB-468 breast
NCI-H226 lung = test system: NCI-H226 lung
NCI-H23 lung = test system: NCI-H23 lung
NCI-H322M lung = test system: NCI-H322M lung
NCI-H460 NSCLC = test system: NCI-H460 NSCLC
NCI-H522 lung = test system: NCI-H522 lung
NCI/ADR-RES ovarian = test system: NCI/ADR-RES ovarian
OVCAR-3 ovarian = test system: OVCAR-3 ovarian
OVCAR-4 ovarian = test system: OVCAR-4 ovarian
OVCAR-5 ovarian = test system: OVCAR-5 ovarian
OVCAR-8 ovarian = test system: OVCAR-8 ovarian
PC-3 prostate = test system: PC-3 prostate
RPMI-8226 leukemia = test system: RPMI-8226 leukemia
RXF 393 renal = test system: RXF 393 renal
SF-268 CNS = test system: SF-268 CNS
SF-295 CNS = test system: SF-295 CNS
SF-539 CNS = test system: SF-539 CNS
SK-MEL-2 melanoma = test system: SK-MEL-2 melanoma
SK-MEL-28 melanoma = test system: SK-MEL-28 melanoma
SK-MEL-5 melanoma = test system: SK-MEL-5 melanoma
SK-OV-3 ovarian = test system: SK-OV-3 ovarian
SN12C renal = test system: SN12C renal
SNB-19 CNS = test system: SNB-19 CNS
SR leukemia = test system: SR leukemia
T-47D breast = test system: T-47D breast
TK-10 renal = test system: TK-10 renal
U251 glioblastoma = test system: U251 glioblastoma
UACC-257 melanoma = test system: UACC-257 melanoma
UACC-62 melanoma = test system: UACC-62 melanoma
UO-31 renal = test system: UO-31 renal

`Cc1cccc2c1NC(=O)[C@@H](NC(=O)[C@H](CCC(F)(F)F)[C@H](CCC(F)(F)F)C(N)=O)N=C2c1cccc(F)c1` was tested, and the GI50 (786-0 renal) was 22.2 µM, the TGI (786-0 renal) was > 100 µM and the GI50 (A498 renal) was 7.76 µM. For the same molecule, the TGI (A498 renal) was 51.6 µM, the GI50 (A549 NSCLC) was 31.6 µM and the TGI (A549 NSCLC) was > 100 µM. The GI50 (ACHN renal) was 17.9 µM, the TGI (ACHN renal) was 64.5 µM and the GI50 (BT-549 breast) was 14.7 µM. The TGI (BT-549 breast) was 48.3 µM, the GI50 (CAKI-1 renal) was 13.3 µM and the TGI (CAKI-1 renal) was 26.8 µM. For the same molecule, the GI50 (COLO 205 colon) was 37.5 µM, the TGI (COLO 205 colon) was > 100 µM and the GI50 (DU-145 prostate) was 24.6 µM. For the same molecule, the TGI (DU-145 prostate) was > 100 µM, the GI50 (HCC-2998 colon) was 25.9 µM and the TGI (HCC-2998 colon) was > 100 µM. The GI50 (HCT-116 colon) was 20.1 µM, the TGI (HCT-116 colon) was > 100 µM and the GI50 (HCT-15 colon) was > 100 µM. For the same molecule, the TGI (HCT-15 colon) was > 100 µM, the GI50 (HL-60(TB) leukemia) was 1.61 µM and the TGI (HL-60(TB) leukemia) was 3.05 µM. For the same molecule, the GI50 (HOP-62 NSCLC) was 20.4 µM, the TGI (HOP-62 NSCLC) was 49.6 µM and the GI50 (HOP-92 NSCLC) was 16.2 µM. The TGI (HOP-92 NSCLC) was 49.6 µM, the GI50 (HT29 colon) was > 100 µM and the TGI (HT29 colon) was > 100 µM. The GI50 (IGROV1 ovarian) was 34.1 µM, the TGI (IGROV1 ovarian) was > 100 µM and the GI50 (KM12 colon) was > 100 µM. For the same molecule, the TGI (KM12 colon) was > 100 µM, the GI50 (LOX IMVI melanoma) was > 100 µM and the TGI (LOX IMVI melanoma) was > 100 µM. The GI50 (M14 melanoma) was 19.7 µM, the TGI (M14 melanoma) was > 100 µM and the GI50 (MALME-3M melanoma) was 19.2 µM. For the same molecule, the TGI (MALME-3M melanoma) was 69.7 µM, the GI50 (MCF7 breast) was 12 µM and the TGI (MCF7 breast) was > 100 µM. The GI50 (MDA-MB-231 breast) was 15.7 µM, the TGI (MDA-MB-231 breast) was 92.6 µM and the GI50 (MDA-MB-435 melanoma) was > 100 µM. For the same molecule, the TGI (MDA-MB-435 melanoma) was > 100 µM, the GI50 (MDA-MB-468 breast) was 13.9 µM and the TGI (MDA-MB-468 breast) was 92 µM. It also gave a GI50 (NCI-H226 lung) of 17.7 µM, a TGI (NCI-H226 lung) of 75.1 µM and a GI50 (NCI-H23 lung) of 26.8 µM. For the same molecule, the TGI (NCI-H23 lung) was 82 µM, the GI50 (NCI-H322M lung) was 46.8 µM and the TGI (NCI-H322M lung) was > 100 µM. The GI50 (NCI-H460 NSCLC) was 4.08 µM, the TGI (NCI-H460 NSCLC) was > 100 µM and the GI50 (NCI-H522 lung) was 8.01 µM. The TGI (NCI-H522 lung) was 26.1 µM, the GI50 (NCI/ADR-RES ovarian) was 56.3 µM and the TGI (NCI/ADR-RES ovarian) was > 100 µM. For the same molecule, the GI50 (OVCAR-3 ovarian) was 20 µM, the TGI (OVCAR-3 ovarian) was > 100 µM and the GI50 (OVCAR-4 ovarian) was 18 µM. The TGI (OVCAR-4 ovarian) was 40.8 µM, the GI50 (OVCAR-5 ovarian) was 37.7 µM and the TGI (OVCAR-5 ovarian) was > 100 µM. The GI50 (OVCAR-8 ovarian) was 21.5 µM, the TGI (OVCAR-8 ovarian) was 62.5 µM and the GI50 (PC-3 prostate) was > 100 µM. For the same molecule, the TGI (PC-3 prostate) was > 100 µM, the GI50 (RPMI-8226 leukemia) was 5.27 µM and the TGI (RPMI-8226 leukemia) was > 100 µM. For the same molecule, the GI50 (RXF 393 renal) was 5.72 µM, the TGI (RXF 393 renal) was 22.9 µM and the GI50 (SF-268 CNS) was 17 µM. For the same molecule, the TGI (SF-268 CNS) was 41.3 µM, the GI50 (SF-295 CNS) was 24.3 µM and the TGI (SF-295 CNS) was 60 µM. The GI50 (SF-539 CNS) was 16.3 µM, the TGI (SF-539 CNS) was 34.1 µM and the GI50 (SK-MEL-2 melanoma) was 16.9 µM. The TGI (SK-MEL-2 melanoma) was 58.5 µM, the GI50 (SK-MEL-28 melanoma) was 22.5 µM and the TGI (SK-MEL-28 melanoma) was 68 µM. For the same molecule, the GI50 (SK-MEL-5 melanoma) was 25.3 µM, the TGI (SK-MEL-5 melanoma) was > 100 µM and the GI50 (SK-OV-3 ovarian) was 19.3 µM. The TGI (SK-OV-3 ovarian) was 46.8 µM, the GI50 (SN12C renal) was 70.1 µM and the TGI (SN12C renal) was > 100 µM. For the same molecule, the GI50 (SNB-19 CNS) was 37.7 µM, the TGI (SNB-19 CNS) was > 100 µM and the GI50 (SR leukemia) was 1.25 µM. The TGI (SR leukemia) was 2.54 µM, the GI50 (T-47D breast) was 25.2 µM and the TGI (T-47D breast) was > 100 µM. For the same molecule, the GI50 (TK-10 renal) was 38.4 µM, the TGI (TK-10 renal) was > 100 µM and the GI50 (U251 glioblastoma) was 13.7 µM. For the same molecule, the TGI (U251 glioblastoma) was 72.9 µM, the GI50 (UACC-257 melanoma) was 16.3 µM and the TGI (UACC-257 melanoma) was 55 µM. For the same molecule, the GI50 (UACC-62 melanoma) was 14.9 µM, the TGI (UACC-62 melanoma) was > 100 µM and the GI50 (UO-31 renal) was 25.6 µM. The TGI (UO-31 renal) was 69.5 µM.
